Holding throughout (assay): KINOMEscan (ScanMAX) kinase profiling
What all share (assay type): binding

The target in assay [1] is T1, panel of 468 kinases (Homo sapiens, UniProt O76039).
T1 construct: purchased KINOMEscan (ScanMAX) service
T1 sequence (O76039 1-960): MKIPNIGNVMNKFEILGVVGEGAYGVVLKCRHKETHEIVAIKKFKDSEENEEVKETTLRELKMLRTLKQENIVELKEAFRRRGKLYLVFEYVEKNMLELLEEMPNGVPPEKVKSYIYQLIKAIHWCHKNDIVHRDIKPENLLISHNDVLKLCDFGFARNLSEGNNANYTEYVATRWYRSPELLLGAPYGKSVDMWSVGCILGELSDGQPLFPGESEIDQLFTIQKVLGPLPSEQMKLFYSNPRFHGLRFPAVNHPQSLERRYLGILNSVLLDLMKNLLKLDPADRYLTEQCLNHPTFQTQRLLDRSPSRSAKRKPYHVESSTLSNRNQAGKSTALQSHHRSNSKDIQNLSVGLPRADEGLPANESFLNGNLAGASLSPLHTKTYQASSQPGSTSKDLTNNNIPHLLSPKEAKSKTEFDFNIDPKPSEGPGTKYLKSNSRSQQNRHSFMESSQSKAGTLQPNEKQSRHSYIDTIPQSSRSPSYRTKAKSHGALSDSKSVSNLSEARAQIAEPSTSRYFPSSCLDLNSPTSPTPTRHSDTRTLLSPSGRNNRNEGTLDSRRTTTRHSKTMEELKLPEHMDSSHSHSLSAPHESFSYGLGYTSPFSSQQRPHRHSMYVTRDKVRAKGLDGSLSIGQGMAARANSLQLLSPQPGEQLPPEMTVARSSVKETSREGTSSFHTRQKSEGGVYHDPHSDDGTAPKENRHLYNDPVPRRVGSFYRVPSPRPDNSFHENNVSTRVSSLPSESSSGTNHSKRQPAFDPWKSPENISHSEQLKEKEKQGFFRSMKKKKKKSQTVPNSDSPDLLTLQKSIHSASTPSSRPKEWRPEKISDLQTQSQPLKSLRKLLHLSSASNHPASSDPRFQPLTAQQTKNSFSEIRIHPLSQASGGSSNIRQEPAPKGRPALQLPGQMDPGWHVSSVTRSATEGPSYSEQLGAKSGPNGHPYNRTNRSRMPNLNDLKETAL
Conditions: CDKL5; 1 μM; read-out: % control.

Assay [2] deals with T2, panel of 468 kinases (Homo sapiens, UniProt P00533, G719S).
T2 construct: purchased KINOMEscan (ScanMAX) service
Conditions: EGFR(G719S); 1 μM; read-out: % control.

Assay [3] concerns the target T3, panel of 468 kinases (Homo sapiens, UniProt P45985).
T3 construct: purchased KINOMEscan (ScanMAX) service
T3 sequence (P45985 1-399): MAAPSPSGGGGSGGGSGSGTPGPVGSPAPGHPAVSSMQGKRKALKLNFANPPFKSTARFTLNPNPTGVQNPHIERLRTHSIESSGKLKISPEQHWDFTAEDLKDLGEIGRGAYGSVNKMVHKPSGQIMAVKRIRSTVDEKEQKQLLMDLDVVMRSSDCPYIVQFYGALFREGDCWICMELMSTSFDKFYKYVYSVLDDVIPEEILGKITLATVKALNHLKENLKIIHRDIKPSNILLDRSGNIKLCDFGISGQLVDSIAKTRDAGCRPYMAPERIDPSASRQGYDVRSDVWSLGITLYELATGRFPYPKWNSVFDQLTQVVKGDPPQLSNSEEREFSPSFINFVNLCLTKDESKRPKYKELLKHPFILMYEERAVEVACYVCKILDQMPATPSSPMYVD
To be noted: MEK4; 1 μM; read-out: % control.

In assay [4] the target is T4, panel of 468 kinases (Homo sapiens, UniProt Q15139).
T4 construct: purchased KINOMEscan (ScanMAX) service
T4 sequence (Q15139 1-912): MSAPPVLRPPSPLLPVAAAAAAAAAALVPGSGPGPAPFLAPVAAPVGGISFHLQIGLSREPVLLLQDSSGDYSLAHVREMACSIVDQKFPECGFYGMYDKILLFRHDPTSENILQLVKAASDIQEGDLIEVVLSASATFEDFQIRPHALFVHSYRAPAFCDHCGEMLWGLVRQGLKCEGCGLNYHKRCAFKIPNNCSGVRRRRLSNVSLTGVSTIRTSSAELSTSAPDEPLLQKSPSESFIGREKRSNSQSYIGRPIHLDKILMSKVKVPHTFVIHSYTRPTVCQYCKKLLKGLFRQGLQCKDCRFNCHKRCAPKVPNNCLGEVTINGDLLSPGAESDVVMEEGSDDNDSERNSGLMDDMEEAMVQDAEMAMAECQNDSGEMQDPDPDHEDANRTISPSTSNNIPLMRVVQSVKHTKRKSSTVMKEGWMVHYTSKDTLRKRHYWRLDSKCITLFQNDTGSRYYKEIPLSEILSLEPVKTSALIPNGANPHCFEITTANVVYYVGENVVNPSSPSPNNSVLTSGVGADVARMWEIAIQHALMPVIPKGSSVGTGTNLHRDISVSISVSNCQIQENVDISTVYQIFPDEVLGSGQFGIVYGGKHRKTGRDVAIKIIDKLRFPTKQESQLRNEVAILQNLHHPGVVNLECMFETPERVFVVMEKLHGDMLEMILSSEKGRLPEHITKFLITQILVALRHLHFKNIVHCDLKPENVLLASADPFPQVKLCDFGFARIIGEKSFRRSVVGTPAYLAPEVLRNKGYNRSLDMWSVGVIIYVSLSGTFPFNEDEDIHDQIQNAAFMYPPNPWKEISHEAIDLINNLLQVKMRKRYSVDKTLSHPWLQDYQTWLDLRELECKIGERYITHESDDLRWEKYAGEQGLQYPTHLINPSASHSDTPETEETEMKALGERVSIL
To be noted: PRKD1; 1 μM; read-out: % control.

The structures appear in SMILES notation.

T2 sequence (P00533 25-1210 G719S): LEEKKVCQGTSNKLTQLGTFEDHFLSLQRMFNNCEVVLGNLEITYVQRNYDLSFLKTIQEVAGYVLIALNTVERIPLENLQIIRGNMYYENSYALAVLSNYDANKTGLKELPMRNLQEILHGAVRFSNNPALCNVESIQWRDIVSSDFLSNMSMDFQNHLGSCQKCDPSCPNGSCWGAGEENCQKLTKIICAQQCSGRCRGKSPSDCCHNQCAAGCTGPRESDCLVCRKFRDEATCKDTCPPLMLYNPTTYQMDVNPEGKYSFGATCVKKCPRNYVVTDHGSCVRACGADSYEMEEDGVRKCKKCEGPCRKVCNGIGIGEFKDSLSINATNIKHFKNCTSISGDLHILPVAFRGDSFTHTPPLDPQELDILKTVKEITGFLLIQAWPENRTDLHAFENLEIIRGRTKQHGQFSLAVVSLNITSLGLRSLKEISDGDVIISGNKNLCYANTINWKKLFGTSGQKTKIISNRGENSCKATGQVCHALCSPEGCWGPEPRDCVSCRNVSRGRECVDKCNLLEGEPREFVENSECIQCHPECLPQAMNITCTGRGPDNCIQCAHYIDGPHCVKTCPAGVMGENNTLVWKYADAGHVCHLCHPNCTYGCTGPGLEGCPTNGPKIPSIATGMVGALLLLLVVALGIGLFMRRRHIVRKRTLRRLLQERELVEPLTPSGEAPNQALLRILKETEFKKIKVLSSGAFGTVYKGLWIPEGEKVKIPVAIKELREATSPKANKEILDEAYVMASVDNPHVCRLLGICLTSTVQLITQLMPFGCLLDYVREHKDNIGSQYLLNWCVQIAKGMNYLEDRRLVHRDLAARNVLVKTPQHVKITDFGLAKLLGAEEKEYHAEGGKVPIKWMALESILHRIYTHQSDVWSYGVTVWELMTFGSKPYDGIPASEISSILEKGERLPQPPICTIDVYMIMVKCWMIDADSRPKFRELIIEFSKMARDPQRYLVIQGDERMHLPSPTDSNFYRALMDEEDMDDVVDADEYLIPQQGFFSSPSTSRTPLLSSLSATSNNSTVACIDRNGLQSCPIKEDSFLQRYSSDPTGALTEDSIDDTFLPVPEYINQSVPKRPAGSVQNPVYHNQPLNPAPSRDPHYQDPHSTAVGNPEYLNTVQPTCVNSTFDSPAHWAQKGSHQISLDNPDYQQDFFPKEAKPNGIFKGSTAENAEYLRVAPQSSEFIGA

As for `CNc1nc(Nc2ccc(S(=O)(=O)N3CCC(N4CCOCC4)CC3)cc2OC)nc2[nH]cc(Cl)c12` [Compound 12, 5-chloro-N2-(2-methoxy-4-((4-morpholinopiperidin-1-yl)sulfonyl)phenyl)-N4-methyl-7H-pyrrolo[2,3-d]pyrimidine-2,4-diamine], the remaining binding at 1 µM at panel of 468 kinases [1] was found to be 83%; at panel of 468 kinases [2], 99%; at panel of 468 kinases [3] it was 26%; on panel of 468 kinases [4], 8.8%.

As to `CNc1nc(Nc2ccc(P3(=O)CCN(C4CCOCC4)CC3)cc2OC)nc2[nH]cc(Cl)c12` [Compound 77, 4-(4-((5-chloro-4-(methylamino)-7H-pyrrolo[2,3-d]pyrimidin-2-yl)amino)-3-methoxyphenyl)-1-(tetrahydro-2H-pyran-4-yl)-1,4-azaphosphinane 4-oxide], the remaining binding at 1 µM on panel of 468 kinases [1] was 91%; on panel of 468 kinases [2] it was 100%; at panel of 468 kinases [3], 4.7%; on panel of 468 kinases [4], 7%.

With `CNc1nc(Nc2ccc(C(=O)N3CCC(N4CCOCC4)CC3)c3c2OCO3)nc2[nH]cc(Cl)c12` [Compound 75, (7-((5-chloro-4-(methylamino)-7H-pyrrolo[2,3-d]pyrimidin-2-yl)amino)benzo[d][1,3]dioxol-4-yl)(4-morpholinopiperidin-1-yl)methanone], the remaining binding at 1 µM at panel of 468 kinases [1] was 83%; at panel of 468 kinases [2], 100%; at panel of 468 kinases [3] it was 0.05%; at panel of 468 kinases [4], 7.3%.

The values above are taken from patent US12479847B2 (DANA-FARBER CANCER INSTITUTE, INC., priority 2019, dated 2025).
